Laboratory results taken from patent US9586969B2, “Microbiocidal heterobicyclic derivatives” (Syngenta Participations AG, priority 2014, dated 2017).
Where two headings read alike, the source gives them in different places.

Columns and labels:
Assay type in all cases: cell-based
[1] = system: Botryotinia fuckeliana (Botrytis cinerea); assay: Botryotinia fuckeliana (Botrytis cinerea) / liquid culture (Gray mould); conditions: 72 h, read-out: disease control
Gaeumannomyces graminis = Gaeumannomyces graminis / liquid culture (Take-all of cereals); conditions: 96 h, liquid culture, 24° C., inhibition of growth determined photometrically 4-5 days after application, vs untreated control, read-out: disease control
[2] = system: Glomerella lagenarium (Colletotrichum lagenarium); assay: Glomerella lagenarium (Colletotrichum lagenarium) / liquid culture (Anthracnose); conditions: Colletotrichum orbiculare, read-out: disease control
[3] = system: Monographella nivalis (Microdochium nivale); assay: Monographella nivalis (Microdochium nivale) / liquid culture (Foot rot cereals); conditions: 96 h, read-out: disease control
Fusarium culmorum = assay: microbe, parasite or virus in culture; conditions: 72 h, read-out: disease control
[4] = system: Mycosphaerella graminicola (Septoria tritici); assay: Mycosphaerella graminicola (Septoria tritici) / liquid culture (Septoria blotch); conditions: Zymoseptoria tritici, 96 h, liquid culture, 24° C., inhibition of growth determined photometrically 4-5 days after application, vs untreated control, read-out: disease control
[5] = 200 ppm, liquid culture, 24° C., inhibition of growth determined photometrically 3-4 days after application, vs untreated control
[6] = 200 ppm, liquid culture, 24° C., inhibition of growth measured photometrically 3-4 days after application, vs untreated control
[7] = 200 ppm, liquid culture, 24° C., inhibition of growth determined photometrically 4-5 days after application, vs untreated control

Measured: inhibition of growth at 200 ppm

CC1(C)N=C(c2cnn3cccc3c2)c2cccc(F)c2C1(C)C [E 1]
≥ 80%: [1]; [5] | Gaeumannomyces graminis | [2]; [6] | [3]; [7]

CC1(C)N=C(c2cnn3c(F)ccc3c2)c2cccc(F)c2C1(C)C [E 2]
≥ 80%: Fusarium culmorum | [1]; [5] | Gaeumannomyces graminis | [2]; [6] | [3]; [7]

CC1(C)Cc2c(Br)cccc2C(c2cnn3cccc3c2)=N1 [E 5]
≥ 80%: [4] | Fusarium culmorum | [1]; [5] | [2]; [6] | [3]; [7]

CC1(C)Cc2c(Cl)cccc2C(c2cnn3cccc3c2)=N1 [E 6]
≥ 80%: Fusarium culmorum | [1]; [5] | [2]; [6] | [3]; [7]

CC1(C)Cc2c(F)cccc2C(c2cnn3c(F)ccc3c2)=N1 [E 7, 5-fluoro-1-(7-fluoro-pyrrolo[1,2-b]pyridazin-3-yl)-3,3-dimethyl-3,4-dihydro-isoquinoline]
≥ 80%: Fusarium culmorum | [1]; [5] | [2]; [6] | [3]; [7]

CC1(C)Cc2c(Br)cccc2C(c2cnn3c(F)ccc3c2)=N1 [E 9]
≥ 80%: Fusarium culmorum | [1]; [5] | [2]; [6] | [3]; [7]

CC1(C)Cc2ccccc2C(c2cnn3cccc3c2)=N1 [E 10, 3,3-dimethyl-1-pyrrolo[1,2-b]pyridazin-3-yl-4H-isoquinoline]
≥ 80%: [1]; [5] | [2]; [6] | [3]; [7]

CC1(C)N=C(c2cnn3c(Cl)ccc3c2)c2cccc(F)c2C1(C)C [E 13]
≥ 80%: [1] | [2] | [3]

CC1(C)Cc2c(F)cccc2C(c2cnn3c(Br)ccc3c2)=N1 [E 17]
≥ 80%: [1]; [5] | Gaeumannomyces graminis | [2]; [6] | [3]; [7]

CC1(C)Cc2ccccc2C(c2cnn3c(F)ccc3c2)N1 (stereo not drawn) [E 21]
≥ 80%: [1]; [5] | Gaeumannomyces graminis | [2]; [6]

CC1(C)Cc2c(C#N)cccc2C(c2cnn3c(F)ccc3c2)=N1 [E 22]
≥ 80%: Fusarium culmorum | [1]; [5] | [2]; [6] | [3]; [7]

CC1(C)N=C(c2cnn3c(F)cc(I)c3c2)c2cccc(F)c2C1(C)C [E 24]
≥ 80%: [4] | Fusarium culmorum | [1]; [5] | [2]; [6] | [3]; [7]

CC1(C)N=C(c2cnn3c(F)cc(C#N)c3c2)c2cccc(F)c2C1(C)C [E 25]
≥ 80%: [1]; [5] | [2]; [6] | [3]; [7]

Cc1ccc2cc(C3=NC(C)(C)Cc4c(F)cccc43)cnn12 [E 26]
≥ 80%: Fusarium culmorum | [1]; [5] | [2]; [6] | [3]; [7]

CC1(C)Cc2c(I)cccc2C(c2cnn3cccc3c2)=N1 [E 29]
≥ 80%: [4] | Fusarium culmorum | [1]; [5] | [2]; [6] | [3]; [7]

CC1(C)Cc2c(Oc3ccccn3)cccc2C(c2cnn3cccc3c2)=N1 [E 31]
≥ 80%: [1]; [5] | Gaeumannomyces graminis

CC1(C)Cc2c(cccc2C(F)F)C(c2cnn3cccc3c2)=N1 [E 32]
≥ 80%: Fusarium culmorum | [1]; [5] | [2]; [6] | [3]; [7]

CC1(C)N=C(c2cnn3c(I)ccc3c2)c2cccc(F)c2C1(C)C [E 37]
≥ 80%: [1]; [5] | [2]; [6] | [3]; [7]

CC1(C)N=C(c2cnn3c(I)cc(I)c3c2)c2cccc(F)c2C1(C)C [E 38]
≥ 80%: [4] | [1]; [5] | [3]; [7]

CC1(C)N=C(c2cnn3c(Br)ccc3c2)c2cccc(F)c2C1(C)C [E 42]
≥ 80%: Fusarium culmorum | [1]; [5] | Gaeumannomyces graminis | [2]; [6] | [3]; [7]

CC1(C)N=C(c2cnn3c(C(F)(F)F)ccc3c2)c2cccc(F)c2C1(C)C [E 43]
≥ 80%: [1]; [5] | [2]; [6] | [3]; [7]

CC1(C)N=C(c2cnn3cccc3c2)c2cccc(F)c2C1(C)C [E 45]
≥ 80%: Fusarium culmorum

CC1(C)N=C(c2cnn3c(C#N)ccc3c2)c2cccc(F)c2C1(C)C [E 52]
≥ 80%: Fusarium culmorum | [1]; [5] | [2]; [6] | [3]; [7]

Cc1ccc2cc(C3=NC(C)(C)C(C)(C)c4c(F)cccc43)cnn12 [E 53]
≥ 80%: Fusarium culmorum | [1]; [5] | [2]; [6] | [3]; [7]

C#CCOc1cccc2c1CC(C)(C)N=C2c1cnn2cccc2c1 [E 54]
≥ 80%: [1]; [5] | Gaeumannomyces graminis

CC1(C)Cc2c(C#N)cccc2C(c2cnn3cccc3c2)=N1 [E 58]
≥ 80%: Fusarium culmorum | [1]; [5] | [2]; [6]

CC1(C)Cc2c(Oc3ccccc3)cccc2C(c2cnn3cccc3c2)=N1 [E 60]
≥ 80%: [4] | Fusarium culmorum | [1]; [5] | [2]; [6] | [3]; [7]

CC1(C)N=C(c2cnn3cccc3c2)c2ccccc2C1(C)C [E 61]
≥ 80%: Fusarium culmorum | [1]; [5] | [2]; [6]

C#Cc1ccc2cc(C3=NC(C)(C)C(C)(C)c4c(F)cccc43)cnn12 [E 62]
≥ 80%: [1]; [5] | [2]; [6] | [3]; [7]

CC1(C)N=C(c2cnn3c(Cl)cc(Cl)c3c2)c2cccc(F)c2C1(C)C [E 69]
≥ 80%: [1]; [5] | [2]; [6] | [3]; [7]

CC1(C)N=C(c2cnn3ccc(Br)c3c2)c2ccccc2C1(F)F [E 70]
≥ 80%: [1]; [5] | [2]; [6] | [3]; [7]

CC1(C)N=C(c2cnn3cccc3c2)c2ccccc2C1(F)F [E 71]
≥ 80%: Fusarium culmorum | [1]; [5] | [2]; [6] | [3]; [7]

CC1(C)N=C(c2cnn3cccc3c2)c2ccc(F)cc2C1(C)C [E 72]
≥ 80%: Fusarium culmorum | [1]; [5] | [2]; [6] | [3]; [7]

CC1(C)N=C(c2cnn3cccc3c2)c2ccc(F)c(F)c2C1(C)C [E 73]
≥ 80%: Fusarium culmorum | [1]; [5] | [2]; [6] | [3]; [7]

CC1(C)N=C(c2cnn3cc(F)cc3c2)c2cccc(F)c2C1(C)C [E 74]
≥ 80%: Fusarium culmorum | [1]; [5] | [2]; [6] | [3]; [7]

CC1(C)N=C(c2cnn3c(F)c(F)cc3c2)c2cccc(F)c2C1(C)C [E 75]
≥ 80%: Fusarium culmorum | [1]; [5] | Gaeumannomyces graminis | [2]; [6]

Cc1nn2cccc2cc1C1=NC(C)(C)C(C)(C)c2cc(F)ccc21 [E 78]
≥ 80%: Fusarium culmorum | [1]; [5] | [2]; [6]

Cc1c(C2=NC(C)(C)C(C)(C)c3cc(F)ccc32)cnn2cccc12 [E 79]
≥ 80%: Fusarium culmorum | [1]; [5] | [2]; [6]

Cc1nn2cccc2cc1C1=NC(C)(C)C(C)(C)c2c1ccc(F)c2F [E 80]
≥ 80%: Fusarium culmorum | [1]; [5] | [2]; [6] | [3]; [7]

Cc1c(C2=NC(C)(C)C(C)(C)c3c2ccc(F)c3F)cnn2cccc12 [E 81]
≥ 80%: Fusarium culmorum | [1]; [5] | [2]; [6]

Cc1c(C2=NC(C)(C)C(C)(C)c3c(F)cccc32)cnn2c(Br)ccc12 [E 82]
≥ 80%: [1]; [5] | [2]; [6] | [3]; [7]

Cc1nn2c(Br)ccc2cc1C1=NC(C)(C)C(C)(C)c2c(F)cccc21 [E 84]
≥ 80%: Fusarium culmorum | [1]; [5] | Gaeumannomyces graminis | [2]; [6] | [3]; [7]

CC1(C)N=C(c2cnn3ccnc3c2)c2cccc(F)c2C1(C)C [E 85]
≥ 80%: [1]; [5] | [2]; [6] | [3]; [7]

Cc1cnc2cc(C3=NC(C)(C)C(F)(F)c4c(F)cccc43)cnn12 [E 90]
≥ 80%: Fusarium culmorum | [1]; [5] | [2]; [6] | [3]; [7]
